{"source": "PubChem BioAssay AID2060489", "about": "(Molecular Pharmacology Branch, DTP, NCI, 2025);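 note: spheroids exposed to compounds for seven days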;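 for viability, T/C: 100% = DMSO vehicle control viability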", "tested_on": "922993-354-T-J3-PDC complex spheroids, viability", "test": "Anticancer human tumor 922993-354-T-J3-PDC patient-derived endometrial carcinoma cell line growth inhibition [GQUAD]", "settings": "for IC50: curve of first compound; for viability, T/C: stronger effect = lower value", "how_it_was_run": "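Viability of tumor cells grown as complex spheroids with endothelial and stromal cells, exposed to drug combinations. Top concentration at or near clinical Cmax (else 10 microM), diluted in half-log increments.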", "key": {"[1]": {"settings": "second compound 0.0316 µM, first compound 0.0316 µM"}, "[2]": {"settings": "second compound 0.0316 µM, first compound 0.1 µM"}, "[3]": {"settings": "second compound 0.0316 µM, first compound 0.316 µM"}, "[4]": {"settings": "second compound 0.0316 µM, first compound 1 µM"}, "[5]": {"settings": "second compound 0.0316 µM, first compound 3.16 µM"}, "[6]": {"settings": "second compound 0.0316 µM, first compound 10 µM"}, "[7]": {"settings": "second compound 0.1 µM, first compound 0.0316 µM"}, "[8]": {"settings": "second compound 0.1 µM, first compound 0.1 µM"}, "[9]": {"settings": "second compound 0.1 µM, first compound 0.316 µM"}, "[10]": {"settings": "second compound 0.1 µM, first compound 1 µM"}, "[11]": {"settings": "second compound 0.1 µM, first compound 3.16 µM"}, "[12]": {"settings": "second compound 0.1 µM, first compound 10 µM"}, "[13]": {"settings": "second compound 0.316 µM, first compound 0.0316 µM"}, "[14]": {"settings": "second compound 0.316 µM, first compound 0.1 µM"}, "[15]": {"settings": "second compound 0.316 µM, first compound 0.316 µM"}, "[16]": {"settings": "second compound 0.316 µM, first compound 1 µM"}, "[17]": {"settings": "second compound 0.316 µM, first compound 3.16 µM"}, "[18]": {"settings": "second compound 0.316 µM, first compound 10 µM"}, "[19]": {"settings": "second compound 1 µM, first compound 0.0316 µM"}, "[20]": {"settings": "second compound 1 µM, first compound 0.1 µM"}, "[21]": {"settings": "second compound 1 µM, first compound 0.316 µM"}, "[22]": {"settings": "second compound 1 µM, first compound 1 µM"}, "[23]": {"settings": "second compound 1 µM, first compound 3.16 µM"}, "[24]": {"settings": "second compound 1 µM, first compound 10 µM"}, "[25]": {"settings": "second compound 3.16 µM, first compound 0.0316 µM"}, "[26]": {"settings": "second compound 3.16 µM, first compound 0.1 µM"}, "[27]": {"settings": "second compound 3.16 µM, first compound 0.316 µM"}, "[28]": {"settings": "second compound 3.16 µM, first compound 1 µM"}, "[29]": {"settings": "second compound 3.16 µM, first compound 3.16 µM"}, "[30]": {"settings": "second compound 3.16 µM, first compound 10 µM"}, "[31]": {"settings": "second compound 10 µM, first compound 0.0316 µM"}, "[32]": {"settings": "second compound 10 µM, first compound 0.1 µM"}, "[33]": {"settings": "second compound 10 µM, first compound 0.316 µM"}, "[34]": {"settings": "second compound 10 µM, first compound 1 µM"}, "[35]": {"settings": "second compound 10 µM, first compound 3.16 µM"}, "[36]": {"settings": "second compound 10 µM, first compound 10 µM"}}, "data": [{"smiles": "C=CCn1c(=O)c2cnc(Nc3ccc(N4CCN(C)CC4)cc3)nc2n1-c1cccc(C(C)(C)O)n1", "note": "+ Cc1[nH]c2ccc(F)cc2c1-c1nc2c3cccnc3c3ncccc3c2[nH]1", "values": [{"measurement": "IC50", "setting": "second compound 0.0316 µM", "result": 4.83, "unit": "µM"}, {"measurement": "IC50", "setting": "second compound 0.1 µM", "result": 4.5, "unit": "µM"}, {"measurement": "IC50", "setting": "second compound 0.316 µM", "result": 3.37, "unit": "µM"}, {"measurement": "IC50", "setting": "second compound 1 µM", "result": 5.51, "unit": "µM"}, {"measurement": "IC50", "setting": "second compound 3.16 µM", "result": 5.24, "unit": "µM"}, {"measurement": "IC50", "setting": "second compound 10 µM", "result": 4.37, "unit": "µM"}, {"measurement": "viability, T/C", "setting": "[1]", "result": 119, "unit": "%"}, {"measurement": "viability, T/C", "setting": "[2]", "result": 107, "unit": "%"}, {"measurement": "viability, T/C", "setting": "[3]", "result": 119, "unit": "%"}, {"measurement": "viability, T/C", "setting": "[4]", "result": 101, "unit": "%"}, {"measurement": "viability, T/C", "setting": "[5]", "result": 70.6, "unit": "%"}, {"measurement": "viability, T/C", "setting": "[6]", "result": 16.6, "unit": "%"}, {"measurement": "viability, T/C", "setting": "[7]", "result": 127, "unit": "%"}, {"measurement": "viability, T/C", "setting": "[8]", "result": 81.2, "unit": "%"}, {"measurement": "viability, T/C", "setting": "[9]", "result": 108, "unit": "%"}, {"measurement": "viability, T/C", "setting": "[10]", "result": 91.7, "unit": "%"}, {"measurement": "viability, T/C", "setting": "[11]", "result": 64.6, "unit": "%"}, {"measurement": "viability, T/C", "setting": "[12]", "result": 16.4, "unit": "%"}, {"measurement": "viability, T/C", "setting": "[13]", "result": 97.5, "unit": "%"}, {"measurement": "viability, T/C", "setting": "[14]", "result": 122, "unit": "%"}, {"measurement": "viability, T/C", "setting": "[15]", "result": 128, "unit": "%"}, {"measurement": "viability, T/C", "setting": "[16]", "result": 116, "unit": "%"}, {"measurement": "viability, T/C", "setting": "[17]", "result": 52.1, "unit": "%"}, {"measurement": "viability, T/C", "setting": "[18]", "result": 14.7, "unit": "%"}, {"measurement": "viability, T/C", "setting": "[19]", "result": 91.9, "unit": "%"}, {"measurement": "viability, T/C", "setting": "[20]", "result": 102, "unit": "%"}, {"measurement": "viability, T/C", "setting": "[21]", "result": 101, "unit": "%"}, {"measurement": "viability, T/C", "setting": "[22]", "result": 91, "unit": "%"}, {"measurement": "viability, T/C", "setting": "[23]", "result": 80.4, "unit": "%"}, {"measurement": "viability, T/C", "setting": "[24]", "result": 17.9, "unit": "%"}, {"measurement": "viability, T/C", "setting": "[25]", "result": 114, "unit": "%"}, {"measurement": "viability, T/C", "setting": "[26]", "result": 81.5, "unit": "%"}, {"measurement": "viability, T/C", "setting": "[27]", "result": 124, "unit": "%"}, {"measurement": "viability, T/C", "setting": "[28]", "result": 107, "unit": "%"}, {"measurement": "viability, T/C", "setting": "[29]", "result": 75.4, "unit": "%"}, {"measurement": "viability, T/C", "setting": "[30]", "result": 17.4, "unit": "%"}, {"measurement": "viability, T/C", "setting": "[31]", "result": 105, "unit": "%"}, {"measurement": "viability, T/C", "setting": "[32]", "result": 97.9, "unit": "%"}, {"measurement": "viability, T/C", "setting": "[33]", "result": 104, "unit": "%"}, {"measurement": "viability, T/C", "setting": "[34]", "result": 98.2, "unit": "%"}, {"measurement": "viability, T/C", "setting": "[35]", "result": 63.6, "unit": "%"}, {"measurement": "viability, T/C", "setting": "[36]", "result": 15, "unit": "%"}]}, {"smiles": "CC(C)(O)C1CCC(Nc2ccc3ncc(-c4cccc(C(F)(F)F)c4)n3n2)CC1", "note": "(centres undefined) + Cc1[nH]c2ccc(F)cc2c1-c1nc2c3cccnc3c3ncccc3c2[nH]1", "values": [{"measurement": "IC50", "setting": "second compound 0.0316 µM", "result": "> 10", "unit": "µM"}, {"measurement": "IC50", "setting": "second compound 0.1 µM", "result": "> 10", "unit": "µM"}, {"measurement": "IC50", "setting": "second compound 0.316 µM", "result": "> 10", "unit": "µM"}, {"measurement": "IC50", "setting": "second compound 1 µM", "result": "> 10", "unit": "µM"}, {"measurement": "IC50", "setting": "second compound 3.16 µM", "result": "> 10", "unit": "µM"}, {"measurement": "IC50", "setting": "second compound 10 µM", "result": "> 10", "unit": "µM"}, {"measurement": "viability, T/C", "setting": "[1]", "result": 96.5, "unit": "%"}, {"measurement": "viability, T/C", "setting": "[2]", "result": 93.5, "unit": "%"}, {"measurement": "viability, T/C", "setting": "[3]", "result": 76.6, "unit": "%"}, {"measurement": "viability, T/C", "setting": "[4]", "result": 84.5, "unit": "%"}, {"measurement": "viability, T/C", "setting": "[5]", "result": 72.9, "unit": "%"}, {"measurement": "viability, T/C", "setting": "[6]", "result": 66.5, "unit": "%"}, {"measurement": "viability, T/C", "setting": "[7]", "result": 95.6, "unit": "%"}, {"measurement": "viability, T/C", "setting": "[8]", "result": 77, "unit": "%"}, {"measurement": "viability, T/C", "setting": "[9]", "result": 99.1, "unit": "%"}, {"measurement": "viability, T/C", "setting": "[10]", "result": 77.3, "unit": "%"}, {"measurement": "viability, T/C", "setting": "[11]", "result": 85, "unit": "%"}, {"measurement": "viability, T/C", "setting": "[12]", "result": 77.2, "unit": "%"}, {"measurement": "viability, T/C", "setting": "[13]", "result": 99.7, "unit": "%"}, {"measurement": "viability, T/C", "setting": "[14]", "result": 87.4, "unit": "%"}, {"measurement": "viability, T/C", "setting": "[15]", "result": 91.2, "unit": "%"}, {"measurement": "viability, T/C", "setting": "[16]", "result": 108, "unit": "%"}, {"measurement": "viability, T/C", "setting": "[17]", "result": 81.6, "unit": "%"}, {"measurement": "viability, T/C", "setting": "[18]", "result": 62.6, "unit": "%"}, {"measurement": "viability, T/C", "setting": "[19]", "result": 86.5, "unit": "%"}, {"measurement": "viability, T/C", "setting": "[20]", "result": 104, "unit": "%"}, {"measurement": "viability, T/C", "setting": "[21]", "result": 92.6, "unit": "%"}, {"measurement": "viability, T/C", "setting": "[22]", "result": 87.5, "unit": "%"}, {"measurement": "viability, T/C", "setting": "[23]", "result": 77.7, "unit": "%"}, {"measurement": "viability, T/C", "setting": "[24]", "result": 66.4, "unit": "%"}, {"measurement": "viability, T/C", "setting": "[25]", "result": 95.2, "unit": "%"}, {"measurement": "viability, T/C", "setting": "[26]", "result": 80.2, "unit": "%"}, {"measurement": "viability, T/C", "setting": "[27]", "result": 111, "unit": "%"}, {"measurement": "viability, T/C", "setting": "[28]", "result": 79.8, "unit": "%"}, {"measurement": "viability, T/C", "setting": "[29]", "result": 94.7, "unit": "%"}, {"measurement": "viability, T/C", "setting": "[30]", "result": 67, "unit": "%"}, {"measurement": "viability, T/C", "setting": "[31]", "result": 105, "unit": "%"}, {"measurement": "viability, T/C", "setting": "[32]", "result": 105, "unit": "%"}, {"measurement": "viability, T/C", "setting": "[33]", "result": 84.6, "unit": "%"}, {"measurement": "viability, T/C", "setting": "[34]", "result": 99.8, "unit": "%"}, {"measurement": "viability, T/C", "setting": "[35]", "result": 72.8, "unit": "%"}, {"measurement": "viability, T/C", "setting": "[36]", "result": 61.6, "unit": "%"}]}]}
